Measured values: patent publication US8247612B2, “Organic sulfur compound and its use for controlling harmful arthropod” (Sumitomo Chemical Company, Limited, priority 2007, dated 2012)

Columns and labels:
Type in all cases: in vivo
Blattalla germanica = assay: Test Example 3: treated filter paper with sucrose bait, death rate of Blattalla germanica; conditions: 144 h; 500 ppm test solution, 0.7 ml on filter paper; 2 male imagoes; after 6 days
Protocol: (§1) Preparations of the present compounds (2), (3), (5), (6), (10), (11), (12), (14), (15), (16), (17), (19), (20), (24), (25), (26), (29), (30) and (31) obtained according to Formulation Example 36 were diluted so that the active ingredient concentration was 500 ppm to obtain test solutions.
(§2) A filter paper having a diameter of 5.5 cm was spread on the bottom of a polyethylene cup having a diameter of 5.5 cm and 0.7 ml of the test solution was added dropwise onto the filter paper. As a bait 30 mg of sucrose was uniformly placed on the filter paper. Into the polyethylene cup, 2 male imagoes of Blattalla germanica were released and the cup was sealed with a lid. After 6 days, the number of surviving Blattalla germanica was examined and the death rate of the pest was calculated.
As a result, in treatments with the present compounds (2), (3), (5), (6), (10), (11), (12), (14), (15), (16), (17), (19), (20), (24), (25), (26), (29), (30) and (31), the death rate of the pest was 100%.

Musca domestica = assay: Test Example 2: treated filter paper with sucrose bait, death rate of Musca domestica; conditions: 500 ppm test solution, 0.7 ml on filter paper, 10 female imagoes, after 24 hours
Protocol: as §1, with “(6), (9),” for “(6),”, “(12), (13),” for “(12),”, “(26), (28),” for “(26),”
as §2, with “10 female” for “2 male”, “Musca domestica” for “Blattalla germanica”, “24 hours,” for “6 days,”
As a result, in treatments with the present compounds (2), (3), (5), (6), (9), (10), (11), (12), (13), (14), (15), (16), (17), (19), (20), (24), (25), (26), (28), (29), (30) and (31), the death rate of the pest was 70% or more.

Culex pipiens pallens = assay: Test Example 4: larvae in treated water, death rate of Culex pipiens pallens; conditions: 24 h, active ingredient concentration 3.5 ppm in water, 20 last-instar larvae, after one day
Protocol: Preparations of the present compounds (1), (2), (3), (4), (5), (6), (9), (10), (11), (12), (14), (15), (16), (17), (19), (20), (22), (23), (24), (26), (27), (28), (29), (30) and (31) obtained according to Formulation Example 36 were diluted so that the active ingredient concentration was 500 ppm to obtain test solutions. To 100 mL of ion-exchanged water, 0.7 ml of the test solution was added (active ingredient concentration: 3.5 ppm). Into the solution, 20 last-instar larvae of Culex pipiens pallens were released. After one day, the number of surviving Culex pipiens pallens was examined and the death rate of the pest was calculated. As a result, in treatments with the present compounds (1), (2), (3), (4), (5), (6), (9), (10), (11), (12), (14), (15), (16), (17), (19), (20), (22), (23), (24), (26), (27), (28), (29), (30) and (31), the death rate of the pest was 90% or more.

## CSC(CCC(Cl)(C(N)=O)S(=O)(=O)CCC(F)(F)F)C(F)(F)F (stereo not drawn) [present compound (29), 2-chloro-6,6,6-trifluoro-5-methylthio-2-(3,3,3-trifluoropropylsulfonyl)hexanamide]
Blattalla germanica
  pest or weed control at 500 ppm: 100%
Musca domestica
  pest or weed control at 500 ppm: ≥ 70%
Culex pipiens pallens
  pest or weed control at 3.5 ppm: ≥ 90%

## COC(=O)C(CCC(OC)C(F)(F)F)S(=O)(=O)CCC(F)(F)F (stereo not drawn) [present compound (24), methyl 6,6,6-trifluoro-5-methoxy-2-(3,3,3-trifluoropropylsulfonyl)hexanoate]
Blattalla germanica
  pest or weed control at 500 ppm: 100%
Musca domestica
  pest or weed control at 500 ppm: ≥ 70%
Culex pipiens pallens
  pest or weed control at 3.5 ppm: ≥ 90%

## CC(CCC(Cl)(C(N)=O)S(=O)(=O)CCC(F)(F)F)C(F)(F)C(F)(F)F (stereo not drawn) [present compound (31), 2-chloro-6,6,7,7,7-pentafluoro-5-methyl-2-(3,3,3-trifluoropropylsulfonyl)heptanamide]
Blattalla germanica
  pest or weed control at 500 ppm: 100%
Musca domestica
  pest or weed control at 500 ppm: ≥ 70%
Culex pipiens pallens
  pest or weed control at 3.5 ppm: ≥ 90%

## COC(=O)C(Cl)(CCC(OC)C(F)(F)F)S(=O)(=O)CCC(F)(F)F (stereo not drawn) [present compound (25), methyl 2-chloro-6,6,6-trifluoro-5-methoxy-2-(3,3,3-trifluoropropylsulfonyl)hexanoate]
Blattalla germanica
  pest or weed control at 500 ppm: 100%
Musca domestica
  pest or weed control at 500 ppm: ≥ 70%

## COC(=O)C(Cl)(CCC(C)C(F)(F)F)S(=O)(=O)CCC(F)(F)F (stereo not drawn) [present compound (2), methyl 2-chloro-6,6,6-trifluoro-5-methyl-2-(3,3,3-trifluoropropylsulfonyl)hexanoate]
Blattalla germanica
  pest or weed control at 500 ppm: 100%
Musca domestica
  pest or weed control at 500 ppm: ≥ 70%
Culex pipiens pallens
  pest or weed control at 3.5 ppm: ≥ 90%

## COC(CCC(Cl)(C(N)=O)S(=O)(=O)CCC(F)(F)F)C(F)(F)F (stereo not drawn) [present compound (26), 2-chloro-6,6,6-trifluoro-5-methoxy-2-(3,3,3-trifluoropropylsulfonyl)hexanamide]
Blattalla germanica
  pest or weed control at 500 ppm: 100%
Musca domestica
  pest or weed control at 500 ppm: ≥ 70%
Culex pipiens pallens
  pest or weed control at 3.5 ppm: ≥ 90%

## CC(C)(C)C(CCC(Cl)(C(N)=O)S(=O)(=O)CCC(F)(F)F)C(F)(F)F (stereo not drawn) [present compound (9), 2-chloro-6,6-dimethyl-5-trifluoromethyl-2-(3,3,3-trifluoropropylsulfonyl)heptanamide]
Musca domestica
  pest or weed control at 500 ppm: ≥ 70%
Culex pipiens pallens
  pest or weed control at 3.5 ppm: ≥ 90%

## CCC(CCC(F)(C(N)=O)S(=O)(=O)CCC(F)(F)F)C(F)(F)F (stereo not drawn) [present compound (12), 2-fluoro-5-(trifluoromethyl)-2-(3,3,3-trifluoropropylsulfonyl)heptanamide]
Blattalla germanica
  pest or weed control at 500 ppm: 100%
Musca domestica
  pest or weed control at 500 ppm: ≥ 70%
Culex pipiens pallens
  pest or weed control at 3.5 ppm: ≥ 90%

## CCC(CCC(C)(C(N)=O)S(=O)(=O)CCC(F)(F)F)C(F)(F)F (stereo not drawn) [present compound (13), 2-methyl-5-(trifluoromethyl)-2-(3,3,3-trifluoropropylsulfonyl)heptanamide]
Musca domestica
  pest or weed control at 500 ppm: ≥ 70%

## CCC(CCC(Cl)(C(N)=O)S(=O)(=O)CCC(F)(F)F)C(F)(F)F (stereo not drawn) [present compound (6), 2-chloro-5-trifluoromethyl-2-(3,3,3-trifluoropropylsulfonyl)heptanamide]
Blattalla germanica
  pest or weed control at 500 ppm: 100%
Musca domestica
  pest or weed control at 500 ppm: ≥ 70%
Culex pipiens pallens
  pest or weed control at 3.5 ppm: ≥ 90%

## COC(=O)C(Cl)(CCC(SC)C(F)(F)F)S(=O)(=O)CCC(F)(F)F (stereo not drawn) [present compound (28), methyl 2-chloro-6,6,6-trifluoro-5-methylthio-2-(3,3,3-trifluoropropylsulfonyl)hexanoate]
Musca domestica
  pest or weed control at 500 ppm: ≥ 70%
Culex pipiens pallens
  pest or weed control at 3.5 ppm: ≥ 90%

## COC(=O)C(Cl)(CCC(C(C)C)C(F)(F)F)S(=O)(=O)CCC(F)(F)F (stereo not drawn) [present compound (19), methyl 2-chloro-6-methyl-5-(trifluoromethyl)-2-(3,3,3-trifluoropropylsulfonyl)heptanoate]
Blattalla germanica
  pest or weed control at 500 ppm: 100%
Musca domestica
  pest or weed control at 500 ppm: ≥ 70%
Culex pipiens pallens
  pest or weed control at 3.5 ppm: ≥ 90%

## CCCC(CCC(Cl)(C(=O)OC)S(=O)(=O)CCC(F)(F)F)C(F)(F)F (stereo not drawn) [present compound (22), methyl 2-chloro-5-(trifluoromethyl)-2-(3,3,3-trifluoropropylsulfonyl)octanoate]
Culex pipiens pallens
  pest or weed control at 3.5 ppm: ≥ 90%

## CCC(CCC(C(=O)OC)S(=O)(=O)CCC(F)(F)F)C(F)(F)F (stereo not drawn) [present compound (4), methyl 5-trifluoromethyl-2-(3,3,3-trifluoropropylsulfonyl)heptanoate]
Culex pipiens pallens
  pest or weed control at 3.5 ppm: ≥ 90%

## CCC(CCC(F)(C(=O)OC)S(=O)(=O)CCC(F)(F)F)C(F)(F)F (stereo not drawn) [present compound (11), methyl 2-fluoro-5-(trifluoromethyl)-2-(3,3,3-trifluoropropylsulfonyl)heptanoate]
Blattalla germanica
  pest or weed control at 500 ppm: 100%
Musca domestica
  pest or weed control at 500 ppm: ≥ 70%
Culex pipiens pallens
  pest or weed control at 3.5 ppm: ≥ 90%

## CC(C)C(CCC(Cl)(C(N)=O)S(=O)(=O)CCC(F)(F)F)C(F)(F)F (stereo not drawn) [present compound (20), 2-chloro-6-methyl-5-(trifluoromethyl)-2-(3,3,3-trifluoropropylsulfonyl)heptanamide]
Blattalla germanica
  pest or weed control at 500 ppm: 100%
Musca domestica
  pest or weed control at 500 ppm: ≥ 70%
Culex pipiens pallens
  pest or weed control at 3.5 ppm: ≥ 90%

## CSC(CCC(C#N)S(=O)(=O)CCC(F)(F)F)C(F)(F)F (stereo not drawn) [present compound (30), 6,6,6-trifluoro-5-methylthio-2-(3,3,3-trifluoropropylsulfonyl)hexanenitrile]
Blattalla germanica
  pest or weed control at 500 ppm: 100%
Musca domestica
  pest or weed control at 500 ppm: ≥ 70%
Culex pipiens pallens
  pest or weed control at 3.5 ppm: ≥ 90%

## COC(=O)C(CCC(SC)C(F)(F)F)S(=O)(=O)CCC(F)(F)F (stereo not drawn) [present compound (27), methyl 6,6,6-trifluoro-5-methylthio-2-(3,3,3-trifluoropropylsulfonyl)hexanoate]
Culex pipiens pallens
  pest or weed control at 3.5 ppm: ≥ 90%

## CCCC(CCC(Cl)(C(N)=O)S(=O)(=O)CCC(F)(F)F)C(F)(F)F (stereo not drawn) [present compound (23), 2-chloro-5-(trifluoromethyl)-2-(3,3,3-trifluoropropylsulfonyl)octanamide]
Culex pipiens pallens
  pest or weed control at 3.5 ppm: ≥ 90%

## COC(=O)C(CCC(C)C(F)(F)F)S(=O)(=O)CCC(F)(F)F (stereo not drawn) [present compound (1), methyl 6,6,6-trifluoro-5-methyl-2-(3,3,3-trifluoropropylsulfonyl)hexanoate]
Culex pipiens pallens
  pest or weed control at 3.5 ppm: ≥ 90%

## CCC(CCC(Cl)(C(=O)OC)S(=O)(=O)CCC(F)(F)F)C(F)(F)F (stereo not drawn) [present compound (5), methyl 2-chloro-5-trifluoromethyl-2-(3,3,3-trifluoropropylsulfonyl)heptanoate]
Blattalla germanica
  pest or weed control at 500 ppm: 100%
Musca domestica
  pest or weed control at 500 ppm: ≥ 70%
Culex pipiens pallens
  pest or weed control at 3.5 ppm: ≥ 90%
